# Results published in US11479592B2, “Erythropoietin-derived peptide, preparation method and use thereof” (Zhongshan Hospital, Fudan University, priority 2017, dated 2022).
# Numbered stars: 1 amine (or outer) side, 2 acyl side, 3 side chain; on linkers, the order of the positions; unused ones are H or OH. Square brackets hold non-standard residues; d marks the D form. Peptide text beside a SMILES is read from it. * marks the point of attachment. X1 = O=C1NC2CSC(CCCCC(=O)*)C2N1; X2 = CC(O)CC(N[*:1])C(=O)[*:2]; Abu = CC[CH](N)C(=O)O
# Legend:
# red blood cells = test: Hematopoietic experiment: red blood cell counts after daily intraperitoneal injection; type: in vivo, C57/BL6 mice; conditions: for RBC generation (erythrocyte counts): tail vein blood; for red blood cell counts compared with the other groups (Saline, ACN+Milliq): as the number of administrations increases
# Method: 18-22 g of male C57/BL6 mice (purchased from Shanghai SIPPR-BK Laboratory Animal Co., Ltd., 50 mice in total and 10 mice for each group) were used. The five groups were injected intraperitoneally with EPO (50 μg/kg), EPO-derived peptide of the present invention (50 μg/kg), EPO-derived peptide of the present invention (250 μg/kg), physiological saline (0.1 m/mouse), and solvent (ACN+Milliq, 0.1 m/mouse) once a day, respectively. On the 3th, 7th, and 13th days, the blood samples were collected from the tail vein and measured by a ProCyte Dx automatic blood cell analyzer to obtain the numbers of red blood cells thereof.
# [1] = test system: fetal rat cortical neurons; test: NMDA-induced damage to neurons, MTT cell survival and LDH release; type: cell-based; conditions: NMDA 250 μmol/L, 60 min; EPO 5 μg/ml, T3 100 μg/ml
# Method: Based on the above results, the primary cortical neurons were administered with 250 μmol/L NMDA.
# 1. Selecting well-grown neurons cultured for 7-14 days, and adding EPO (5 μg/ml), the EPO-derived peptide of the present invention (100 μg/ml) respectively;
# 2. Adding NMDA to achieve a final concentration of 250 μmol/L, and culturing in an incubator at 37° C. for 60 min;
# 3. Discarding the culture medium, and measuring the cell survival rate (MTT kit, Beyotime Biotechnology Co., Ltd.) and LDH lactic dehydrogenase release rate (LDH kit, Promega Corporation) of the cells in each group.
# [2] = test system: pilocarpine-induced seizures; test: Pilocarpine-induced epilepsy model: seizure latency; type: in vivo, C57/BL6 mice; conditions: for seizure latency / seizure latency versus saline and solvent groups: EPO 50 μg/kg; for seizure latency: T3 500 μg/kg i.p. 1 day, 4 h, 2 h before pilocarpine 350 mg/kg; for seizure latency versus saline and solvent groups: T3 500 μg/kg, difference statistically significant
# Method: C57/BL6 mice (male, 20-25 g, 24 mice, purchased from Shanghai JieSiJie Laboratory Animal Co., Ltd) were divided into physiological saline group (Saline, 0.2 ml/mouse), solvent group (ACN+Milliq, 0.2 ml/mouse), EPO group (50 μg/kg), novel EPO-derived peptide group (T3, 500 μg/kg), 6 mice each group. The drugs were administered 1 day, 4 h, and 2 h before pilocarpine-induced epilepsy, and the seizure latency and severity of seizures were recorded.
# 1. Intraperitoneally administering the mice 1 day, 4 h, 2 h prior to the injection of pilocarpine;
# 2. Intraperitoneally injecting scopolamine (1 mg/kg) 30 min in advance to reduce the peripheral cholinergic response induced by pilocarpine;
# 3. Intraperitoneally injecting pilocarpine (350 mg/kg), recording the time of administration, time of onset, severity of seizure;
# Behavioral grading of epilepsy continuing status using the Racine scale:
# Grade I: staring, mouth and facial movements;
# Grade II: nodding, single jerks;
# Grade III: unilateral/bilateral forelimb clonus
# Grade V: loss of posture, jumping repeatedly, falling, tonic clonic seizure.
# [3] = test system: mouse model of transient middle cerebral artery occlusion; test: Mouse model of transient middle cerebral artery occlusion: neurobehavioral scores, cerebral infarction volume; type: in vivo, ICR mice; conditions: for cerebral infarction volume versus control group / neurobehavioral scores versus control group: EPO 50 μg/kg, T3 500 μg/kg at reperfusion; for Neurobehavioral scores / Cerebral infarction volumes: third day after surgery; for Neurobehavioral scores: 60 min ischemia then reperfusion; for Cerebral infarction volumes: cresyl violet sections
# Method: ICR mice (male, 25-30 g, 18 mice, purchased from Shanghai Slac Laboratory Animal Co., Ltd.) were divided into control group (ACN+Millq, 0.2 ml/mouse), EPO group (50 μg/kg), novel EPO-derived peptide group (T3, 500 μg/kg), 6 mice/group. Mice in each group were operated with suture-occluded method in mice to establish middle cerebral artery occlusion model, the mice were anesthetized by intraperitoneal injection of ketamine hydrochloride and fixed on the operating table. After 60 min of ischemia, the sutures were removed to reperfuse, and the solvents (ACN+Milliq), EPO, and T3 were administered separately. Neurobehavioral scores were measured on the third day after surgery, and then the mice were sacrificed to reperfuse and the brains were harvested to make sections stained with cresyl violet. The results were shown in FIG. 7A, FIG. 7B and FIG. 7C.
# 1. Disinfecting the neck, making an incision at the center of the neck, exposing the left common carotid artery with a microsurgical forceps under a stereo microscope, separating the internal carotid artery, external carotid artery and pterygopalatine artery, ligating the common carotid artery and internal carotid artery; making two knots on the external carotid artery with two filaments, wherein one at the distal part of the external carotid artery is a dead knot, and one at the proximal part of the external carotid artery is a slipknot;
# 2. Making a small incision on the external carotid artery with venus scissors, having about half the size of the blood vessel;
# 3. Cutting the external carotid artery, and carefully reversely inserting the suture from the external carotid artery into the bifurcation of the external carotid artery and internal carotid artery, then loosening the knot on the internal carotid artery, inserting the suture into the internal carotid artery until it encounters a slight resistance, that is, the origin of the middle cerebral artery, and putting the mouse back into the cage.
# 4. Anesthetizing and fixing again after 60 min of cerebral ischemia, and re-exposing the common carotid artery, internal carotid artery and suture parts under a stereo microscope;
# 5. Loosening the filament ligated to the proximal part of the external carotid artery for fixing the suture with the microsurgical forceps, slowly withdrawing the suture, and ligating the stump of the external carotid artery, loosening the filament ligated to the common carotid artery to achieve reperfusion;
# 6. Suturing the incision of the neck, disinfecting the area, and putting the mouse back in the cage for observation.
# [4] = Blood-brain barrier penetration experiment: biotin in cerebrospinal fluid; type: in vivo, mouse; conditions: mice, biotin detected in cerebrospinal fluid
# Method: The biotin-labeled novel EPO-derived peptide was injected intraperitoneally. 5-15 μl of mouse cerebrospinal fluid was taken under general anesthesia 1 h after administration. The biotin assay kit was used to detect whether the biotin-labeled novel EPO-derived peptide entered the cerebrospinal fluid across the blood-brain barrier.
# 1. Anesthetizing the mouse with 4% chloral hydrate;
# 2. Wiping the nape of the neck with wet gauze, and cutting off the dorsal set to expose the skin; making a sagittal incision in the skin below the occipital bone, and separating the skin from both sides to expand the visual field;
# 3. Letting the mouse prone, placing the body at an angle of 135° to the head and fixing the head on the stereotactic instrument; bluntly separating the subcutaneous tissue and muscle along the midline under the stereo microscope; at this angle, the dura mater and spinal cord can be clearly seen in the incision below the occipital bone (The main features are a clear white appearance, a cyclical pulsation of the spinal cord blood vessels and an adjacent cerebrospinal fluid area);
# 4. Setting the heat value as 300 and the pressure value as 330 in the needle puller, pulling the capillary glass tube into a pointed capillary tube, and trimming the tip of the pointed capillary tube with scissors to make the blunt tip have a diameter of 0.5 mm;
# 5. […]
# [5] = test system: fetal rat cortical neurons; test: Oxygen-glucose deprivation (OGD)-induced damage to neurons, MTT cell survival and LDH release; type: cell-based; conditions: 3 h hypoxia (1% oxygen), then 4 h with EPO 5, 100 μg/ml or T3 5, 50, 100 μg/ml
# Method: According to the methods from literatures, the fetal rat cortical neurons were cultured in the serum-free culture medium of Neurobasal® Medium (purchased from the market). After incubation in a 5% CO2 incubator for 7-14 days, the neurons were specifically labeled: microtubule-associated protein-2 (MAP-2) was stained and identified, and the nuclei were labeled with the fluorescent dye of 4, 6-diamidino-2-phenylindole (DAPI).
# The fetal rat cortical neurons of primary culture were cultured in a sugar-free DMED culture medium. After being placed in the hypoxic incubator to damage neurons for 3 h, the culture medium were replaced with serum-free culture medium. EPO, the novel EPO-derived peptide (T3) and the culture medium were added to different groups respectively, and the groups were cultured in a 5% CO2 normal oxygen incubator for 4 h. Then the LDH release rate and MTT cell survival rate of each group were measured.
# 1. Selecting well-grown neurons cultured for 7-14 days, aspirating the old culture medium of neurons, washing 3 times with PBS buffer, and then adding sugar-free DMEM:
# 2. Placing the culture plates in an anoxic incubator at 37° C., and setting the oxygen concentration therein as 1%.
# 3. Removing the culture plates after 3 h of hypoxia, aspirating the sugar-free medium, replacing it with the original serum-free maintenance medium, adding EPO (5 μg/ml, 100 μg/ml), the EPO-derived peptide of the present invention (5 μg/ml, 50 μg/ml, 100 μg/ml), and the culture medium respectively, and placing in an 5% CO2 incubator with 95% air at 37° C. for 4 h.
# 4. After 4 h, measuring the cell survival rate (MTT kit, Beyotime Biotechnology Co., Ltd.) and LDH lactic dehydrogenase release rate (LDH kit, Promega Corporation) of the cells in each group.
# [6] = 50 ug/kg i.p. once a day, 3th day
# [7] = 50 ug/kg i.p. once a day, 7th day
# [8] = 50 ug/kg i.p. once a day, 13th day
Compound,RBC generation (erythrocyte counts) (red blood cells; [6]) [M/μL],RBC generation (erythrocyte counts) (red blood cells; [7]) [M/μL],RBC generation (erythrocyte counts) (red blood cells; [8]) [M/μL],"red blood cell counts compared with the other groups (Saline, ACN+Milliq) (red blood cells)",LDH release rate versus control group [1],cell survival rate (MTT) versus control group [1],seizure latency [2] [min],seizure latency versus saline and solvent groups [2],cerebral infarction volume versus control group [3],neurobehavioral scores versus control group [3],LDH release rate versus control group [5],cell survival rate (MTT) versus control group [5],further results
CCC(NC(=O)C(CC(C)C)NC(=O)CNC(=O)C(CO)NC(=O)C(NC(=O)C(C)NC(=O)C(CC(=O)O)NC(=O)C(NC(=O)C(Cc1cnc[nH]1)NC(=O)C(CC(C)C)NC(=O)C(CCC(N)=O)NC(=O)C(CC(C)C)NC(=O)C1CCCN1C(=O)C(CO)NC(=O)C(CO)NC(=O)C(CC(N)=O)NC(=O)C(NC(=O)C(CC(C)C)NC(=O)C(CC(C)C)NC(=O)C(C)NC(=O)C(CCC(N)=O)NC(=O)CNC(=O)C(CCCNC(=N)N)NC(=O)C(CC(C)C)NC(=O)C(NC(=O)C(C)NC(=O)C(CCC(=O)O)NC(=O)C(CO)NC(=O)CCCCC1SCC2NC(=O)NC21)C(C)C)C(C)C)C(C)C)C(C)C)C(=O)NC(CO)C(=O)NC(CC(C)O)C(=O)NC(C(=O)NC(C(=O)NC(CC(C)C)C(=O)NC(CC(C)C)C(=O)NC(CCCNC(=N)N)C(=O)NC(C)C(=O)NC(CC(C)C)C(=O)O)C(C)O)C(C)O (stereo not drawn) [T3] (X1-SEAVLRGQALLVNSSPLQLHVDAVSGL[Abu]S[X2]TTLLRAL-OH; configuration not given here),9.29 ± 0.13,8.75 ± 0.36,6.77 ± 0.18,no significant increase,lower than that in the control group,higher than that in the control group,40.58 ± 3.67,longer than those of the physiological saline group and the solvent group,lower than those of the control group,lower than those of the control group,lower than that in the control group,higher than that in the control group,"RBC generation (erythrocyte counts) (red blood cells; 250 ug/kg i.p. once a day, 3th day): 8.16 ± 0.28 M/μL; RBC generation (erythrocyte counts) (red blood cells; 250 ug/kg i.p. once a day, 7th day): 9.56 ± 0.54 M/μL; RBC generation (erythrocyte counts) (red blood cells; 250 ug/kg i.p. once a day, 13th day): 6.52 ± 0.12 M/μL; loss of neurons in the hippocampus ([2]; animals with nerve damage (epilepsy model), summary statement): reduce the loss of neurons in the hippocampus; Neurobehavioral scores ([3]; column head: Ctrl + T3 group): 6.3 ± 0.7; Cerebral infarction volumes ([3]; column head: ctrl + T3 group): 40.54 ± 5.78 mm^3; Cerebral infarction volumes ([3]; column head:): 37.72 ± 9.20 mm^3; Neurobehavioral scores ([3]; column head:): 5.7 ± 0.3; blood-brain barrier penetration [4]: could enter the cerebrospinal fluid across the blood-brain barrier"
Erythropoietin [EPO],9.14 ± 0.56,12.79 ± 0.24,11.15 ± 0.23,significantly higher than that of other groups,lower than that in the control group,higher than that in the control group,41.16 ± 3.52,longer than those of the physiological saline group and the solvent group,lower than those of the control group,lower than those of the control group,lower than that in the control group,higher than that in the control group,
